Experimental data published in patent US20190015484A1, “NICOTINE-DEGRADING ENZYMES FOR TREATING NICOTINE ADDICTION AND NICOTINE POISONING” (priority 2015, published 2019).
Read-outs that look alike come from different tables or passages of the source.

Legend:
[1] = humans, cited from earlier work
[2] = target: neuronal nicotinic acetylcholine receptors (nAChR); conditions: cited from earlier work
[3] = target: neuronal nicotinic acetylcholine receptors (nAChR); conditions: read-out: Ki for nAChr; cited from earlier work
[4] = tested on: Swiss Webster mice; assay: Toxicity of reaction product to mice; format: in vivo, mouse
Method: Short-term experiments were performed by administrating 35, 70 140 ng of […] to male Swiss Webster mice (about 20 g, n=4 for each group) daily. Their viability and behavior was recorded.
Long-term experiments were performed by administrating 200 ng to the same species of mice (n=7) every other day for 5 weeks. At the end of the 5th week, the mice were euthanized and autopsied.
The clinical utility of an enzyme also relates to the toxicity and addictive properties of the reaction products. […] However, it has been reported as a likely precursor to 4-(methylnitrosamino)-1-(3-pyridyl)-1-butanone (NNK), a potential carcinogen.^20 To investigate any harmful effects of 4, toxicology studies were performed in which mice were administered pseudooxynicotine (4).
Mice received 35, 70 or 140 ng of compound 4 daily, which is representative of the typical range of nicotine amounts (4-72 ng/mL) found in smokers,^19 if fully converted to compound 4. […] In addition, the long-term exposure (5-weeks) of 4 was evaluated where the mice were dosing every other day with 200 ng compound 4 per dose.

## CN1CCC[C@H]1c1cccnc1 [nicotine, (S)-(−)-nicotine]
[1]; regular smoking
  terminal half-life: ≥ 20 h
[1]; tobacco use
  elimination half-life: 2 to 3 h
[2]; read-out: EC50 for activation of nAChr, activation
  EC50: 60 nM
[2]; read-out: EC50 for desensitization of nAChr, desensitization
  EC50: 2.8 nM
[3]
  Ki: 1 to 12 nM

## CNCCCC(=O)c1cccnc1 [compound 4, 4-(methylamino)-1-(pyridine-3-yl)butan-1-one]
[4]; mice, 200 ng every other day, 5 weeks
  health and autopsy, long-term exposure: remained healthy and autopsies did not reveal any sign of neoplasia or organ damage
[4]; mice, 35, 70 or 140 ng daily, five days
  health and behavior, short-term: none of the mice exhibited any evidence of health or behavioral problems
